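Growth conditions: 96-well plates. Treatment: test compound, 48 hours, 5 concentrations. Analysis: linear interpolation between bracketing concentrations; unreached endpoints set to highest concentration. At the GI50, growth is halved. Definition used: TGI = concentration required for complete inhibition of growth.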
Legend:
Assay in all cases: NCI anticancer screen, dose series, 48 h
HOP-62 NSCLC = tested on: HOP-62 NSCLC
HS 578T breast = tested on: HS 578T breast
SF-539 CNS = tested on: SF-539 CNS
SK-OV-3 ovarian = tested on: SK-OV-3 ovarian
SK-MEL-28 melanoma = tested on: SK-MEL-28 melanoma
BT-549 breast = tested on: BT-549 breast
TK-10 renal = tested on: TK-10 renal
NCI-H226 lung = tested on: NCI-H226 lung
HCT-15 colon = tested on: HCT-15 colon
HT29 colon = tested on: HT29 colon
A498 renal = tested on: A498 renal
RXF 393 renal = tested on: RXF 393 renal
SF-268 CNS = tested on: SF-268 CNS
ACHN renal = tested on: ACHN renal
CCRF-CEM leukemia = tested on: CCRF-CEM leukemia
SF-295 CNS = tested on: SF-295 CNS
SK-MEL-5 melanoma = tested on: SK-MEL-5 melanoma
M14 melanoma = tested on: M14 melanoma
SN12C renal = tested on: SN12C renal
NCI-H23 lung = tested on: NCI-H23 lung
HCC-2998 colon = tested on: HCC-2998 colon
UACC-62 melanoma = tested on: UACC-62 melanoma
HOP-92 NSCLC = tested on: HOP-92 NSCLC
MDA-MB-435 = tested on: MDA-MB-435
NCI-H460 lung = tested on: NCI-H460 lung
K-562 leukemia = tested on: K-562 leukemia
IGROV1 ovarian = tested on: IGROV1 ovarian
KM12 colon = tested on: KM12 colon
SK-MEL-2 melanoma = tested on: SK-MEL-2 melanoma
CAKI-1 renal = tested on: CAKI-1 renal
LOX IMVI melanoma = tested on: LOX IMVI melanoma
MDA-MB-231 breast = tested on: MDA-MB-231 breast
U251 CNS = tested on: U251 CNS
NCI-H522 lung = tested on: NCI-H522 lung
HL-60(TB) leukemia = tested on: HL-60(TB) leukemia
HCT-116 colon = tested on: HCT-116 colon
EKVX NSCLC = tested on: EKVX NSCLC
SNB-75 CNS = tested on: SNB-75 CNS
OVCAR-8 ovarian = tested on: OVCAR-8 ovarian
T-47D breast = tested on: T-47D breast
RPMI-8226 leukemia = tested on: RPMI-8226 leukemia
SW-620 colon = tested on: SW-620 colon
UACC-257 melanoma = tested on: UACC-257 melanoma
OVCAR-5 ovarian = tested on: OVCAR-5 ovarian
DU-145 prostate = tested on: DU-145 prostate
COLO 205 colon = tested on: COLO 205 colon
OVCAR-3 ovarian = tested on: OVCAR-3 ovarian
MOLT-4 leukemia = tested on: MOLT-4 leukemia
MCF7 breast = tested on: MCF7 breast
PC-3 prostate = tested on: PC-3 prostate
MALME-3M melanoma = tested on: MALME-3M melanoma
UO-31 renal = tested on: UO-31 renal
OVCAR-4 ovarian = tested on: OVCAR-4 ovarian
NCI/ADR-RES ovarian = tested on: NCI/ADR-RES ovarian
A549 NSCLC = tested on: A549 NSCLC
SR leukemia = tested on: SR leukemia
SNB-19 CNS = tested on: SNB-19 CNS
786-0 renal = tested on: 786-0 renal

## COc1cnc2c(c1)C(=O)c1c-2n(CCCNCCO)c(=O)c2ccncc12
HOP-62 NSCLC
  GI50: 1.32 µM
  TGI: 26.6 µM
HS 578T breast
  GI50: 2.32 µM
  TGI: 10.7 µM
SF-539 CNS
  GI50: 1.4 µM
  TGI: 6.95 µM
SK-OV-3 ovarian
  GI50: 3.94 µM
  TGI: 61.3 µM
SK-MEL-28 melanoma
  GI50: 2.08 µM
  TGI: 5.79 µM
BT-549 breast
  GI50: 2.03 µM
  TGI: 12.7 µM
TK-10 renal
  GI50: 2.05 µM
  TGI: 19.3 µM
NCI-H226 lung
  GI50: 0.601 µM
  TGI: 3.65 µM
HCT-15 colon
  GI50: 2.3 µM
  TGI: 13.7 µM
HT29 colon
  GI50: 0.633 µM
  TGI: 16.7 µM
A498 renal
  GI50: 0.772 µM
  TGI: 2.62 µM
RXF 393 renal
  GI50: 1.2 µM
  TGI: 3.48 µM
SF-268 CNS
  GI50: 1.28 µM
  TGI: 9.26 µM
ACHN renal
  GI50: 0.553 µM
  TGI: 9.93 µM
CCRF-CEM leukemia
  GI50: 0.626 µM
  TGI: 12.5 µM
SF-295 CNS
  GI50: 0.912 µM
  TGI: 7.89 µM
SK-MEL-5 melanoma
  GI50: 1.43 µM
  TGI: 3.38 µM
M14 melanoma
  GI50: 1.93 µM
  TGI: 7.16 µM
SN12C renal
  GI50: 1.08 µM
  TGI: 13.6 µM
NCI-H23 lung
  GI50: 1.65 µM
  TGI: 6.91 µM
HCC-2998 colon
  GI50: 1.58 µM
  TGI: 4.19 µM
UACC-62 melanoma
  GI50: 0.552 µM
  TGI: 2.12 µM
HOP-92 NSCLC
  GI50: 1.4 µM
  TGI: 6.31 µM
MDA-MB-435
  GI50: 1.31 µM
  TGI: 2.98 µM
NCI-H460 lung
  GI50: 0.513 µM
  TGI: 3.99 µM
K-562 leukemia
  GI50: 0.856 µM
  TGI: 13 µM
IGROV1 ovarian
  GI50: 2.65 µM
  TGI: > 100 µM
KM12 colon
  GI50: 1.51 µM
  TGI: 11.7 µM
SK-MEL-2 melanoma
  GI50: 1.81 µM
  TGI: 4.75 µM
CAKI-1 renal
  GI50: 1.37 µM
  TGI: 13 µM
LOX IMVI melanoma
  GI50: 0.431 µM
  TGI: 3.9 µM
MDA-MB-231 breast
  GI50: 1.95 µM
  TGI: 10.9 µM
U251 CNS
  GI50: 0.708 µM
  TGI: 19.4 µM
NCI-H522 lung
  GI50: 0.607 µM
  TGI: 7.26 µM
HL-60(TB) leukemia
  GI50: 2.74 µM
  TGI: 11.4 µM
HCT-116 colon
  GI50: 0.489 µM
  TGI: 16.9 µM
EKVX NSCLC
  GI50: 2.29 µM
  TGI: 9.27 µM
SNB-75 CNS
  GI50: 1.13 µM
  TGI: 4.2 µM
OVCAR-8 ovarian
  GI50: 0.876 µM
  TGI: 23.7 µM
T-47D breast
  GI50: 0.845 µM
  TGI: 37.5 µM
RPMI-8226 leukemia
  GI50: 1.85 µM
  TGI: 7.58 µM
SW-620 colon
  GI50: 0.52 µM
  TGI: 12.4 µM
UACC-257 melanoma
  GI50: 2.18 µM
  TGI: 9.02 µM
OVCAR-5 ovarian
  GI50: 2.74 µM
  TGI: 20.5 µM
DU-145 prostate
  GI50: 1.36 µM
  TGI: 6.73 µM
COLO 205 colon
  GI50: 0.82 µM
  TGI: 9.05 µM
OVCAR-3 ovarian
  GI50: 2.26 µM
  TGI: 9.73 µM
MOLT-4 leukemia
  GI50: 0.405 µM
  TGI: 10.2 µM
MCF7 breast
  GI50: 0.303 µM
  TGI: 11.3 µM
PC-3 prostate
  GI50: 1.44 µM
  TGI: 11.1 µM
MALME-3M melanoma
  GI50: 1.1 µM
  TGI: 2.82 µM
UO-31 renal
  GI50: 1.3 µM
  TGI: 10.1 µM
OVCAR-4 ovarian
  GI50: 1.38 µM
  TGI: 7.46 µM
NCI/ADR-RES ovarian
  GI50: 5.83 µM
  TGI: 30.8 µM
A549 NSCLC
  GI50: 1.99 µM
  TGI: 9.38 µM

## C1=C2CCCC3=Cc4ccccc4OC23Oc2ccccc21
HOP-62 NSCLC
  GI50: 3.8 µM
  TGI: > 100 µM
SF-539 CNS
  GI50: 1.92 µM
  TGI: 5.01 µM
SK-OV-3 ovarian
  GI50: 3.52 µM
  TGI: > 100 µM
SK-MEL-28 melanoma
  GI50: 5.22 µM
  TGI: > 100 µM
BT-549 breast
  GI50: 3.73 µM
  TGI: 73.7 µM
TK-10 renal
  GI50: 9.87 µM
  TGI: > 100 µM
NCI-H226 lung
  GI50: > 100 µM
  TGI: > 100 µM
HCT-15 colon
  GI50: 3.68 µM
  TGI: > 100 µM
HT29 colon
  GI50: 3.52 µM
  TGI: 17.9 µM
A498 renal
  GI50: 2.76 µM
  TGI: 13.1 µM
RXF 393 renal
  GI50: 2.85 µM
  TGI: 8.77 µM
SF-268 CNS
  GI50: 4.74 µM
  TGI: > 100 µM
ACHN renal
  GI50: 5.06 µM
  TGI: > 100 µM
CCRF-CEM leukemia
  GI50: 3.47 µM
  TGI: 25.9 µM
SF-295 CNS
  GI50: 3.99 µM
  TGI: > 100 µM
SK-MEL-5 melanoma
  GI50: 3.37 µM
  TGI: 24.2 µM
M14 melanoma
  GI50: 3.37 µM
  TGI: > 100 µM
SN12C renal
  GI50: 4.42 µM
  TGI: > 100 µM
NCI-H23 lung
  GI50: 6.2 µM
  TGI: > 100 µM
HCC-2998 colon
  GI50: 10.3 µM
  TGI: 60.7 µM
SR leukemia
  GI50: 2.82 µM
  TGI: > 100 µM
UACC-62 melanoma
  GI50: 2.91 µM
  TGI: 82.5 µM
MDA-MB-435
  GI50: 1.64 µM
  TGI: 4.68 µM
NCI-H460 lung
  GI50: 3.47 µM
  TGI: 16.4 µM
SNB-19 CNS
  GI50: 4.01 µM
  TGI: > 100 µM
K-562 leukemia
  GI50: 3.54 µM
  TGI: > 100 µM
IGROV1 ovarian
  GI50: 5.36 µM
  TGI: > 100 µM
KM12 colon
  GI50: 3.61 µM
  TGI: 56.7 µM
SK-MEL-2 melanoma
  GI50: 4.31 µM
  TGI: 25.6 µM
CAKI-1 renal
  GI50: 3.71 µM
  TGI: > 100 µM
LOX IMVI melanoma
  GI50: 3.88 µM
  TGI: 28 µM
MDA-MB-231 breast
  GI50: 4.23 µM
  TGI: 45.5 µM
U251 CNS
  GI50: 4.54 µM
  TGI: > 100 µM
NCI-H522 lung
  GI50: 2.3 µM
  TGI: 6.2 µM
HL-60(TB) leukemia
  GI50: 3.24 µM
  TGI: > 100 µM
HCT-116 colon
  GI50: 4.35 µM
  TGI: > 100 µM
EKVX NSCLC
  GI50: 5.49 µM
  TGI: > 100 µM
SNB-75 CNS
  GI50: 1.64 µM
  TGI: 5.84 µM
OVCAR-8 ovarian
  GI50: 4.04 µM
  TGI: > 100 µM
T-47D breast
  GI50: 2.46 µM
  TGI: > 100 µM
RPMI-8226 leukemia
  GI50: 3.38 µM
  TGI: 15 µM
SW-620 colon
  GI50: 3.36 µM
  TGI: 53.6 µM
UACC-257 melanoma
  GI50: 5.49 µM
  TGI: > 100 µM
OVCAR-5 ovarian
  GI50: 3.46 µM
  TGI: > 100 µM
DU-145 prostate
  GI50: 3.73 µM
  TGI: 69.1 µM
COLO 205 colon
  GI50: 2.24 µM
  TGI: 5.04 µM
OVCAR-3 ovarian
  GI50: 3.06 µM
  TGI: > 100 µM
MOLT-4 leukemia
  GI50: 3.66 µM
  TGI: > 100 µM
MCF7 breast
  GI50: 3.03 µM
  TGI: 60.6 µM
PC-3 prostate
  GI50: 4 µM
  TGI: > 100 µM
MALME-3M melanoma
  GI50: 7.17 µM
  TGI: > 100 µM
UO-31 renal
  GI50: 4.86 µM
  TGI: > 100 µM
786-0 renal
  GI50: 6.41 µM
  TGI: > 100 µM
OVCAR-4 ovarian
  GI50: 6.12 µM
  TGI: > 100 µM
NCI/ADR-RES ovarian
  GI50: 3.18 µM
  TGI: 55.7 µM
A549 NSCLC
  GI50: 5.87 µM
  TGI: > 100 µM

Source: PubChem BioAssay (NCI)
